From EPA's ToxRefDB 2

What was measured:
[1] = tested on: rat; settings: Subchronic oral toxicity in rodents, fischer, Gavage/Intubation, dose end: 14 week, group: systemic
[2] = tested on: mouse; settings: Combined chronic toxicity/carcinogenicity, b6c3f1, Oral, Gavage/Intubation, dose end: 104 week, group: systemic
[3] = tested on: mouse; settings: Subchronic oral toxicity in rodents, b6c3f1, Gavage/Intubation, dose end: 14 week, group: systemic
[4] = tested on: rat; settings: Combined chronic toxicity/carcinogenicity, fischer, Oral, Gavage/Intubation, dose end: 104 week, group: systemic
[5] = tested on: rat; settings: Subchronic oral toxicity in rodents, sprague dawley, Feed, dose end: 90 day, group: systemic
[6] = tested on: mouse; settings: Subchronic oral toxicity in rodents, cd1, Feed, dose end: 90 day, group: systemic
[7] = tested on: rat; settings: Multigenerational reproductive toxicity study, sprague dawley, Oral, Feed, dose end: 2 generation
[8] = tested on: dog; settings: Chronic toxicity, beagle, Oral, Feed, dose end: 52 week, group: systemic
[9] = tested on: rat; settings: Combined chronic toxicity/carcinogenicity, sprague dawley, Oral, Feed, dose end: 2 year, group: systemic
[10] = tested on: mouse; settings: Carcinogenicity; cd1; Oral; Feed; dose end: 80 week; group: systemic; systemic / in life observation / body weight / body weight + systemic / in life observation / body weight / body weight gain + systemic / …
[11] = systemic / in life observation / body weight / body weight + systemic / in life observation / body weight / body weight gain
[12] = systemic / in life observation / body weight / body weight + systemic / in life observation / body weight / body weight gain + systemic / …
[13] = systemic / pathology microscopic / salivary glands / cytoplasmic alteration
[14] = systemic / pathology microscopic / salivary glands / cytoplasmic alteration + systemic / pathology microscopic / liver / carcinoma
[15] = systemic / pathology microscopic / adrenal gland / atrophy + systemic / pathology microscopic / adrenal gland / vacuolization + systemic / …
[16] = systemic / pathology microscopic / liver / basophilic focus
[17] = systemic / pathology microscopic / pancreas / atrophy + systemic / pathology microscopic / pancreas / hyperplasia + systemic / pathology …
[18] = systemic / in life observation / body weight / body weight + systemic / in life observation / body weight / body weight gain + systemic / in…
[19] = group: offspring, systemic / in life observation / body weight / offspring (pup) weight
[20] = group: offspring, systemic / in life observation / body weight / offspring (pup) weight + systemic / in life observation / body weight / offspring (pup) …
[21] = group: parental, systemic / in life observation / body weight / body weight + systemic / in life observation / body weight / body weight gain + systemic / in…
[22] = systemic / in life observation / food consumption / food consumption
[23] = systemic / organ weight / kidney / absolute + systemic / organ weight / kidney / relative to brain weight
[24] = systemic / organ weight / kidney / absolute + systemic / organ weight / kidney / relative to brain weight + systemic / pathology microscopic…

C[C@]12CCC(=O)C=C1CC[C@@H]1[C@@H]2CC[C@]2(C)C(=O)CC[C@@H]12 [4-Androstene-3,17-dione]
LEL [1, 11]: 1 mg/kg/day
NEL [1, 11]: < 1 mg/kg/day
LOAEL [1, 12]: > 50 mg/kg/day
NOAEL [1, 12]: ≥ 50 mg/kg/day
LOAEL [2, 13]: 2 mg/kg/day
NOAEL [2, 13]: < 2 mg/kg/day
LEL [2, 14]: 2 mg/kg/day
NEL [2, 14]: < 2 mg/kg/day
LEL ([3]; systemic / pathology microscopic / adrenal gland / atrophy): 5 mg/kg/day
NEL ([3]; systemic / pathology microscopic / adrenal gland / atrophy + systemic / pathology microscopic / adrenal gland / vacuolization): 1 mg/kg/day
LOAEL [3, 15]: > 50 mg/kg/day
NOAEL [3, 15]: ≥ 50 mg/kg/day
LEL [4, 16]: 10 mg/kg/day
NEL [4, 16]: < 10 mg/kg/day
LOAEL [4, 17]: 50 mg/kg/day
NOAEL [4, 17]: 20 mg/kg/day

CCCOC(=O)c1ccc(C(=O)OCCC)nc1 [Dipropyl pyridine-2,5-dicarboxylate]
LEL ([5]; systemic / hematology / hematocrit (hct) / hematocrit (hct)): 500 mg/kg/day
LOAEL [5, 12]: 1000 mg/kg/day
NEL [5, 12]: 250 mg/kg/day
NOAEL [5, 12]: 500 mg/kg/day
LOAEL [6, 18]: 2000 mg/kg/day
NOAEL [6, 18]: 1000 mg/kg/day
LEL ([6]; systemic / organ weight / kidney / absolute + systemic / organ weight / kidney / relative to body weight): 500 mg/kg/day
NEL ([6]; systemic / organ weight / kidney / relative to body weight + systemic / organ weight / liver / relative to body weight): 250 mg/kg/day
LEL [7, 19]: 289 mg/kg/day
LOAEL [7, 19]: 289 mg/kg/day
NEL [7, 20]: 72.9 mg/kg/day
NOAEL [7, 20]: 72.9 mg/kg/day
LOAEL [7, 21]: 1020 mg/kg/day
NEL [7, 21]: 66 mg/kg/day
NOAEL [7, 21]: 255 mg/kg/day
LEL ([7]; group: parental, systemic / in life observation / food consumption / food consumption): 255 mg/kg/day
LOAEL ([8]; systemic / in life observation / body weight / body weight gain): 148 mg/kg/day
NOAEL ([8]; systemic / in life observation / body weight / body weight gain + systemic / in life observation / body weight / body weight + systemic / in…): 34.3 mg/kg/day
LEL [8, 22]: 8.12 mg/kg/day
NEL [8, 22]: < 8.12 mg/kg/day
LEL [9, 23]: 250 mg/kg/day
LOAEL [9, 23]: 250 mg/kg/day
NEL [9, 24]: 65 mg/kg/day
NOAEL [9, 24]: 65 mg/kg/day
LEL [10]: 494 mg/kg/day
LOAEL [10]: 494 mg/kg/day
NEL [10]: 124 mg/kg/day
NOAEL [10]: 124 mg/kg/day
